Values quoted from earlier work in patent publication US6280768A, “Berberine alkaloids as a treatment for chronic protozoally induced diarrhea” (PRM Pharmaceuticals, Inc., priority 1997, dated 2001).

Columns and labels:
Enterocytozoon bieneusi = settings: cited from earlier work
microsporidiosis = settings: cited from earlier work
E. bieneusi = settings: cited from earlier work
E. intestinalis = settings: cited from earlier work
microsporidia = settings: some AIDS patients; cited from earlier work

For `CCCSc1ccc2nc(NC(=O)OC)[nH]c2c1` [albendazole], the “reduction in parasite load” value (Enterocytozoon bieneusi; after oral treatment) is listed as “no significant reduction in parasite load”, the “changes in the parasite” value (Enterocytozoon bieneusi; human, in vivo) is listed as “degenerative changes in the parasite” and the “patients relapsed within one month” value (Enterocytozoon bieneusi; human, in vivo) is listed as “Four of five patients relapsed within one month”. For the same molecule, the “relapse of the fifth patient” value (Enterocytozoon bieneusi; human, in vivo) was “the fifth patient relapsed within two months”, the “resolution of chronic diarrhea” value (Enterocytozoon bieneusi; six AIDS patients) was “effective in resolving the chronic diarrhea of six AIDS patients” and the remission of diarrhea (microsporidiosis; 18 AIDS patients) was 70%. The “arrest of parasite development” value (microsporidiosis; human, in vivo) was “did not completely arrest development”, the “rate of parasite reproduction” value (microsporidiosis; interfering with tubulin polymerization) was “slow the rate of parasite reproduction” and the parasite load (microsporidiosis; patients who responded) was “reduction in parasite load in those patients who responded”. The “E. bieneusi spores in small bowel biopsies” value (E. bieneusi; following treatment) was “spores were still present”, the “symptoms and parasite burden” value (E. bieneusi; some of 29 patients) was “improved symptoms and reduced the parasite burden in some of their 29 patients” and the “clearing E. intestinalis from the stools” value (E. intestinalis; five AIDS patients) was “initially effective in clearing E. intestinalis from the stools”. The “patients with spores of E. intestinalis again detected in stools” value (E. intestinalis; followed for more than one month) was “two of four patients”, the duration of relief (E. intestinalis; human, in vivo) was “relief was only temporary” and the “relapse during maintenance therapy” value (E. intestinalis; human, in vivo) was “Relapse occurred in one patient”. For the same molecule, the relief of diarrhea (microsporidia) was “temporarily relieve the diarrhea of some AIDS patients”.
